Each structure is given as a SMILES string. Active and inactive are the calls of the source.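 The calls were made as follows: active = compounds picked for the later follow-up tests because of their potency and selectivity; inactive = compounds skipped in follow-up as weaker or less selective.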

This experiment deals with Protein phosphatase methylesterase 1 (Homo sapiens) (UniProt Q9Y570). The experiment is described as follows: PME-1 inhibitor potency by in-gel ABPP, dose response, selectivity assay for PME-1 inhibitor project, cell lysate, mouse brain cytosol, FP-rhodamine (AID 2366).
Protein phosphatase methylesterase 1 (Homo sapiens), sequence (Q9Y570 whole entry, looked up): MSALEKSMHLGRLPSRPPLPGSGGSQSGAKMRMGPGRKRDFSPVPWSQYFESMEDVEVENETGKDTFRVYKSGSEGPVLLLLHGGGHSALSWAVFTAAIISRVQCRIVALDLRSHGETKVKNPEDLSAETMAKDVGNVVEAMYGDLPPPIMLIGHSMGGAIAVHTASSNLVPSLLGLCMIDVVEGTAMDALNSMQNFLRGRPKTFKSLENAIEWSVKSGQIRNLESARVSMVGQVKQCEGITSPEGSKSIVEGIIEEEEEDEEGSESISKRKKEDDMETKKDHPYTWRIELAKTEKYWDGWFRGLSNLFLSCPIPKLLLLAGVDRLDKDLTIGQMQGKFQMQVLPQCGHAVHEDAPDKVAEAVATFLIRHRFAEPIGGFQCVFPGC
As for `CC(C)(C)S(=O)(=O)/C(C#N)=C/c1cccn1S(=O)(=O)c1cccc(C#N)c1`, the IC50 was 3.4 µM. As for `N#C/C(=C\c1cccn1S(=O)(=O)c1cccc(C#N)c1)S(=O)(=O)c1ccc(F)cc1`, the IC50 was 0.64 µM.

Regarding `CS(=O)(=O)/C(C#N)=C/c1cccn1S(=O)(=O)c1cccc(C#N)c1`, the IC50 is 2.5 µM. As for `CC(C)(C)S(=O)(=O)/C(C#N)=C/c1cccn1S(=O)(=O)c1ccccc1`, the IC50 was 6.8 µM. Under `N#C/C(=C\c1cccn1S(=O)(=O)c1ccccc1)S(=O)(=O)c1ccccc1` stands > 20 µM (inactive); under `CS(=O)(=O)/C(C#N)=C/c1cccn1S(=O)(=O)c1ccc(C#N)cc1`, 4 µM; under `CS(=O)(=O)/C(C#N)=C/c1cccn1S(=O)(=O)c1ccccc1`, 10.8 µM. Under `CS(=O)(=O)/C(C#N)=C/c1cccn1S(=O)(=O)c1ccc([N+](=O)[O-])cc1` stands 3 µM; under `CS(=O)(=O)/C(C#N)=C/c1cccn1S(=O)(=O)c1c(F)c(F)c(F)c(F)c1F`, > 20 µM (inactive).

For orientation: IC50 means the concentration needed to halve the response being measured.
